Measured values: PMC6562696, “Anti-Inflammatory Effects by Pharmacological Inhibition or Knockdown of Fatty Acid Amide Hydrolase in BV2 Microglial Cells” (Cells, 2019)

Target: T1, Fatty acid amide hydrolase (FAAH) (Mus musculus, UniProt O08914)
T1 construct: endogenous FAAH in BV2 microglial cell membrane fraction
T1 sequence (O08914 1-579): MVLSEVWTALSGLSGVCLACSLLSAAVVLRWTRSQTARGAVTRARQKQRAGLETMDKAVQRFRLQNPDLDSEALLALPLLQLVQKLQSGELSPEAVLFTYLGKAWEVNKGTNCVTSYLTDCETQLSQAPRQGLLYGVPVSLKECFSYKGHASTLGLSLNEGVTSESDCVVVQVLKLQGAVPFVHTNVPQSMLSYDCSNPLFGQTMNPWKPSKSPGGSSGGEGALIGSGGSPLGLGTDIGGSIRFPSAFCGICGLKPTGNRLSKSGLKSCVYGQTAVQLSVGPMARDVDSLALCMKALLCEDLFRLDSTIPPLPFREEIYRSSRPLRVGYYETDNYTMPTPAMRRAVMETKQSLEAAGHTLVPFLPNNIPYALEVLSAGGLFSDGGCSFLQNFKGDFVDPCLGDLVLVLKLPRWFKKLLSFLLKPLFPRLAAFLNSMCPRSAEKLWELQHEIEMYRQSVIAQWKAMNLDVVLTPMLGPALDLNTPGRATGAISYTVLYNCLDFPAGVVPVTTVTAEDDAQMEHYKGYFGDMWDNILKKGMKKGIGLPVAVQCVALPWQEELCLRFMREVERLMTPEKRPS
Assay: radiolabeled AEA hydrolysis in BV2 membranes; blocked by FAAH inhibitors, reduced […] by FAAH siRNA
Assay type: cell-based

In the case of `CCCCC/C=C\C/C=C\C/C=C\C/C=C\CCCC(=O)NCCO` [anandamide], the “radiolabeled AEA hydrolysis in BV2 membranes; blocked by FAAH inhibitors, reduce” value is reported as “These results indicated that all AEA hydrolysis activity was attributed to FAAH in BV2 microglial cells”.
